Test results as given in PubChem BioAssay (NCI).
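Exposure lasted 48 hours, with cells grown in 96-well plates and compounds tested at five concentrations. Definition used: TGI = concentration required for complete inhibition of growth.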 Where a SMILES comes first, the peptide text is derived from it.

How the values were obtained:
Experiment in all cases: DTP human tumour cell line panel, 48 h
786-0 renal = test system: 786-0 renal
A498 renal = test system: A498 renal
ACHN renal = test system: ACHN renal
CAKI-1 renal = test system: CAKI-1 renal
CCRF-CEM leukemia = test system: CCRF-CEM leukemia
COLO 205 colon = test system: COLO 205 colon
DU-145 prostate = test system: DU-145 prostate
EKVX NSCLC = test system: EKVX NSCLC
HCC-2998 colon = test system: HCC-2998 colon
HCT-116 colon = test system: HCT-116 colon
HCT-15 colon = test system: HCT-15 colon
HL-60(TB) leukemia = test system: HL-60(TB) leukemia
HOP-62 NSCLC = test system: HOP-62 NSCLC
HOP-92 NSCLC = test system: HOP-92 NSCLC
HT29 colon = test system: HT29 colon
IGROV1 ovarian = test system: IGROV1 ovarian
K-562 leukemia = test system: K-562 leukemia
LOX IMVI melanoma = test system: LOX IMVI melanoma
M14 melanoma = test system: M14 melanoma
MALME-3M melanoma = test system: MALME-3M melanoma
MCF7 breast = test system: MCF7 breast
MDA-MB-231 breast = test system: MDA-MB-231 breast
MDA-MB-435 = test system: MDA-MB-435
MDA-N = test system: MDA-N
MOLT-4 leukemia = test system: MOLT-4 leukemia
NCI-H23 lung = test system: NCI-H23 lung
NCI-H460 lung = test system: NCI-H460 lung
NCI-H522 lung = test system: NCI-H522 lung
NCI/ADR-RES ovarian = test system: NCI/ADR-RES ovarian
OVCAR-3 ovarian = test system: OVCAR-3 ovarian
OVCAR-4 ovarian = test system: OVCAR-4 ovarian
OVCAR-5 ovarian = test system: OVCAR-5 ovarian
OVCAR-8 ovarian = test system: OVCAR-8 ovarian
PC-3 prostate = test system: PC-3 prostate
RPMI-8226 leukemia = test system: RPMI-8226 leukemia
SF-268 CNS = test system: SF-268 CNS
SF-295 CNS = test system: SF-295 CNS
SF-539 CNS = test system: SF-539 CNS
SK-MEL-2 melanoma = test system: SK-MEL-2 melanoma
SK-MEL-28 melanoma = test system: SK-MEL-28 melanoma
SK-OV-3 ovarian = test system: SK-OV-3 ovarian
SN12C renal = test system: SN12C renal
SNB-19 CNS = test system: SNB-19 CNS
SR leukemia = test system: SR leukemia
SW-620 colon = test system: SW-620 colon
T-47D breast = test system: T-47D breast
TK-10 renal = test system: TK-10 renal
U251 CNS = test system: U251 CNS
UACC-257 melanoma = test system: UACC-257 melanoma
UACC-62 melanoma = test system: UACC-62 melanoma
UO-31 renal = test system: UO-31 renal
HS 578T breast = test system: HS 578T breast
KM12 colon = test system: KM12 colon
NCI-H226 lung = test system: NCI-H226 lung
RXF 393 renal = test system: RXF 393 renal
SK-MEL-5 melanoma = test system: SK-MEL-5 melanoma
SNB-75 CNS = test system: SNB-75 CNS

CNC(=O)CNC(=O)C(NC(=O)CNC(=O)C1CCCN1C(=O)C(C)NC(=O)C(NC(C)=O)C(C)C)C(C)C (stereo not drawn) (Ac-VAPGVG-NHMe; configuration not given here)
TGI (786-0 renal): > 100 µM
TGI (A498 renal): > 100 µM
TGI (ACHN renal): > 100 µM
TGI (CAKI-1 renal): > 100 µM
TGI (CCRF-CEM leukemia): > 100 µM
TGI (COLO 205 colon): > 100 µM
TGI (DU-145 prostate): > 100 µM
TGI (EKVX NSCLC): > 100 µM
TGI (HCC-2998 colon): > 100 µM
TGI (HCT-116 colon): > 100 µM
TGI (HCT-15 colon): > 100 µM
TGI (HL-60(TB) leukemia): > 100 µM
TGI (HOP-62 NSCLC): > 100 µM
TGI (HOP-92 NSCLC): > 100 µM
TGI (HT29 colon): > 100 µM
TGI (IGROV1 ovarian): > 100 µM
TGI (K-562 leukemia): > 100 µM
TGI (LOX IMVI melanoma): > 100 µM
TGI (M14 melanoma): > 100 µM
TGI (MALME-3M melanoma): > 100 µM
TGI (MCF7 breast): > 100 µM
TGI (MDA-MB-231 breast): > 100 µM
TGI (MDA-MB-435): > 100 µM
TGI (MDA-N): > 100 µM
TGI (MOLT-4 leukemia): > 100 µM
TGI (NCI-H23 lung): > 100 µM
TGI (NCI-H460 lung): > 100 µM
TGI (NCI-H522 lung): > 100 µM
TGI (NCI/ADR-RES ovarian): > 100 µM
TGI (OVCAR-3 ovarian): > 100 µM
TGI (OVCAR-4 ovarian): > 100 µM
TGI (OVCAR-5 ovarian): > 100 µM
TGI (OVCAR-8 ovarian): > 100 µM
TGI (PC-3 prostate): > 100 µM
TGI (RPMI-8226 leukemia): > 100 µM
TGI (SF-268 CNS): > 100 µM
TGI (SF-295 CNS): > 100 µM
TGI (SF-539 CNS): > 100 µM
TGI (SK-MEL-2 melanoma): > 100 µM
TGI (SK-MEL-28 melanoma): > 100 µM
TGI (SK-OV-3 ovarian): > 100 µM
TGI (SN12C renal): > 100 µM
TGI (SNB-19 CNS): > 100 µM
TGI (SR leukemia): > 100 µM
TGI (SW-620 colon): > 100 µM
TGI (T-47D breast): > 100 µM
TGI (TK-10 renal): > 100 µM
TGI (U251 CNS): > 100 µM
TGI (UACC-257 melanoma): > 100 µM
TGI (UACC-62 melanoma): > 100 µM
TGI (UO-31 renal): > 100 µM

CC1=NN(c2cccc(Cl)c2)C(=N/c2nc3ccccc3s2)/C1=C\c1cccs1
TGI (786-0 renal): > 100 µM
TGI (A498 renal): 82.5 µM
TGI (ACHN renal): > 100 µM
TGI (CAKI-1 renal): > 100 µM
TGI (CCRF-CEM leukemia): 47.1 µM
TGI (DU-145 prostate): > 100 µM
TGI (EKVX NSCLC): > 100 µM
TGI (HCC-2998 colon): > 100 µM
TGI (HCT-116 colon): > 100 µM
TGI (HCT-15 colon): > 100 µM
TGI (HL-60(TB) leukemia): 30.6 µM
TGI (HOP-62 NSCLC): > 100 µM
TGI (HOP-92 NSCLC): > 100 µM
TGI (HS 578T breast): 73 µM
TGI (HT29 colon): > 100 µM
TGI (IGROV1 ovarian): > 100 µM
TGI (K-562 leukemia): 93.4 µM
TGI (KM12 colon): > 100 µM
TGI (LOX IMVI melanoma): > 100 µM
TGI (M14 melanoma): > 100 µM
TGI (MCF7 breast): > 100 µM
TGI (MDA-MB-231 breast): > 100 µM
TGI (MDA-MB-435): > 100 µM
TGI (MDA-N): > 100 µM
TGI (MOLT-4 leukemia): 95.2 µM
TGI (NCI-H226 lung): > 100 µM
TGI (NCI-H23 lung): 61.8 µM
TGI (NCI-H460 lung): > 100 µM
TGI (NCI-H522 lung): 93.8 µM
TGI (NCI/ADR-RES ovarian): 56.5 µM
TGI (OVCAR-3 ovarian): 45.5 µM
TGI (OVCAR-4 ovarian): > 100 µM
TGI (OVCAR-5 ovarian): > 100 µM
TGI (OVCAR-8 ovarian): > 100 µM
TGI (PC-3 prostate): > 100 µM
TGI (RPMI-8226 leukemia): 32.5 µM
TGI (RXF 393 renal): > 100 µM
TGI (SF-268 CNS): > 100 µM
TGI (SF-295 CNS): > 100 µM
TGI (SF-539 CNS): > 100 µM
TGI (SK-MEL-2 melanoma): 65.4 µM
TGI (SK-MEL-28 melanoma): > 100 µM
TGI (SK-MEL-5 melanoma): > 100 µM
TGI (SK-OV-3 ovarian): > 100 µM
TGI (SNB-75 CNS): > 100 µM
TGI (SR leukemia): 64.8 µM
TGI (SW-620 colon): > 100 µM
TGI (T-47D breast): > 100 µM
TGI (TK-10 renal): > 100 µM
TGI (U251 CNS): 60.2 µM
TGI (UACC-257 melanoma): > 100 µM
TGI (UO-31 renal): > 100 µM
